For experiment [1], the target named is T1, chitin synthase 2 of Saccharomyces cerevisiae ECY38-38A(pAS6) (Saccharomyces cerevisiae, UniProt P14180).
T1 construct: made in house; host or cells: Saccharomyces cerevisiae ECY38-38A (chs1-23 chs2::LEU2 cal1/csd2) carrying plasmid pAS6, grown in galactose medium; 130,000 x g membrane pellet
As to the kind of experiment: In vitro enzyme assay for chitin synthase 2 of Saccharomyces cerevisiae (enzyme 2). Conditions: relative to polyoxin D (50% inhibitory activity = value 5). The class given is biochemical. In short, it runs like this: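 Values are scores: 5 means 50% inhibition at the same concentration as polyoxin D, lower scores 2- to 16-fold higher concentration, higher scores ½ to ⅛. Radiolabel from 1.1 mM UDP-[14C]-GlcNAc was incorporated into TCA-insoluble chitin over 90 min at 30 °C (pH 7.5 Tris, 2 mM Co2+). The enzyme was a trypsin-activated membrane fraction from CHS2-only S. cerevisiae ECY38-38A(pAS6).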

The target in experiment [2] is T2, chitin synthase 1 of Candida albicans chs2 Δ chs 3 Δ (Candida albicans, UniProt P23316).
T2 construct: Crude enzyme was prepared using the Candida albicans chs2 Δ chs 3 Δ mutant; endogenous in cells; host or cells: Candida albicans chs2Δ/chs2Δ chs3Δ/chs3Δ mutant; 130,000 x g membrane pellet
As to the kind of experiment: In vitro enzyme assay for chitin synthase 1 of Candida albicans (enzyme 1). It counts as biochemical. Particulars: relative to polyoxin D (50% inhibitory activity = value 5). The method, boiled down:
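Trypsin-activated crude membrane chitin synthase 1 from C. albicans chs2Δ chs3Δ was incubated 90 min at 30 °C with 1.1 mM UDP-[14C]GlcNAc and 2 mM cobalt acetate in Tris-HCl pH 7.5. Filtered TCA precipitate was counted by scintillation; values are scores 1–8 against polyoxin D (5 = same concentration).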

The subject of experiment [3] is Candida albicans A207 (clinical isolate). Nature of the experiment: In vitro antifungal activity (MIC), NCCLS method. Conditions: 48 hours. The class given is cell-based. In short, it runs like this: (§1)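 Broth microdilution per NCCLS: two-fold serial dilutions of test compound inoculated with fungal suspension at a final 5×10^2 to 2.5×10^3 cell/mL. Strains other than Cryptococcus neoformans were incubated 48 hours before MIC reading.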

Experiment [4] relates to Aspergillus terreus ATCC 46941. Nature of the experiment: In vitro antifungal activity (MIC), NCCLS method. The class given is cell-based. Conditions: 48 hours. In short, it runs like this:
(§2)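 Two-fold dilutions, final inoculum 5×10^2–2.5×10^3 cell/mL, NCCLS protocol; 48 h culture for these strains. MIC = minimum inhibitory concentration.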

Experiment [5] relates to Candida glabrata ATCC 48435. Nature of the experiment: In vitro antifungal activity (MIC), NCCLS method. The class given is cell-based. Conditions: Candida glabrata ATCC 48435; 48 hours. In short, it runs like this: (§3)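 According to NCCLS guidance, each compound is diluted two-fold and challenged with a fungal inoculum of 5×10^2 to 2.5×10^3 cell/mL (final). Incubation lasts 48 hours.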

For experiment [6], the system named is Aspergillus flavus ATCC 64025. Nature of the experiment: In vitro antifungal activity (MIC), NCCLS method. The class given is cell-based. Conditions: 48 hours. In short, it runs like this:
as §2

The test system of experiment [7] is Candida lusitaniae ATCC 42720. As to the kind of experiment: In vitro antifungal activity (MIC), NCCLS method. The class given is cell-based. Conditions: 48 hours. In short, it runs like this: as §3
The subject of experiment [8] is Candida krusei ATCC 6258. As to the kind of experiment: In vitro antifungal activity (MIC), NCCLS method. The class given is cell-based. Conditions: 48 hours. In short, it runs like this:
as §3

Experiment [9] deals with Candida parapsilosis ATCC 34136. Nature of the experiment: In vitro antifungal activity (MIC), NCCLS method. Particulars: Candida parapsilosis ATCC 34136; 48 hours. The class given is cell-based. The method, boiled down:
as §3

The subject of experiment [10] is Candida albicans ATCC 10231. As to the kind of experiment: In vitro antifungal activity (MIC), NCCLS method. The class given is cell-based. Particulars: 48 hours. The method, boiled down: as §3
The test system of experiment [11] is Cryptococcus neoformans ATCC 36556. As to the kind of experiment: In vitro antifungal activity (MIC), NCCLS method. It counts as cell-based. Conditions: RPMI 1640 medium, 72 hours. The method, boiled down: as §1
In experiment [12] the test system is Mucor ramosissimus ATCC 90286. As to the kind of experiment: In vitro antifungal activity (MIC), NCCLS method. Conditions: 48 hours. The class given is cell-based. In short, it runs like this: as §3
The test system of experiment [13] is Aspergillus fumigatus ATCC 16424. Nature of the experiment: In vitro antifungal activity (MIC), NCCLS method. It counts as cell-based. Particulars: 48 hours. The method, boiled down: as §2
Experiment [14] relates to Candida tropicalis ATCC 13803. Nature of the experiment: In vitro antifungal activity (MIC), NCCLS method. Conditions: 48 hours. It counts as cell-based. The method, boiled down:
as §3

T2 sequence (P23316 whole entry, stated change not applied): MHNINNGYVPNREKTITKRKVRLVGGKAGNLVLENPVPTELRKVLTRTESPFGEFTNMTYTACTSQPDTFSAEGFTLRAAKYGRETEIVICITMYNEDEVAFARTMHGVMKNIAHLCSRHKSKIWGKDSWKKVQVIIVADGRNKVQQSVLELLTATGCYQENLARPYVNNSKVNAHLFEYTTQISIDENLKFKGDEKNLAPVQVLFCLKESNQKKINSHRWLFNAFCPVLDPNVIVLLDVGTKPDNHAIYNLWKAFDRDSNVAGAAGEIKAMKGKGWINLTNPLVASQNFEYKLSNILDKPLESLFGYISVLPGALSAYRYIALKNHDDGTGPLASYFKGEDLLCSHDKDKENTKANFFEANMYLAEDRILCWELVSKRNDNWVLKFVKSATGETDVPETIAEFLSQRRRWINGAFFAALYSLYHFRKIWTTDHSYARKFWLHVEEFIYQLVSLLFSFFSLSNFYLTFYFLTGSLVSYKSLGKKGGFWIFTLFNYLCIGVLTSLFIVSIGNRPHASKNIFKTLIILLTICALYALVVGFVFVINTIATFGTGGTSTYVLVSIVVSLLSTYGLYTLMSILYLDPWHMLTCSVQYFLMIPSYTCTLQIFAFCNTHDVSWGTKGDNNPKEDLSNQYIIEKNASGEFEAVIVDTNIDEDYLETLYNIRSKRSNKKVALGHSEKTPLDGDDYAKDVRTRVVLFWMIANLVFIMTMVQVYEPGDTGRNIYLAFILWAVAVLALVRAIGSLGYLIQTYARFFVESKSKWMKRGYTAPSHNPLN
T1 sequence (P14180 whole entry): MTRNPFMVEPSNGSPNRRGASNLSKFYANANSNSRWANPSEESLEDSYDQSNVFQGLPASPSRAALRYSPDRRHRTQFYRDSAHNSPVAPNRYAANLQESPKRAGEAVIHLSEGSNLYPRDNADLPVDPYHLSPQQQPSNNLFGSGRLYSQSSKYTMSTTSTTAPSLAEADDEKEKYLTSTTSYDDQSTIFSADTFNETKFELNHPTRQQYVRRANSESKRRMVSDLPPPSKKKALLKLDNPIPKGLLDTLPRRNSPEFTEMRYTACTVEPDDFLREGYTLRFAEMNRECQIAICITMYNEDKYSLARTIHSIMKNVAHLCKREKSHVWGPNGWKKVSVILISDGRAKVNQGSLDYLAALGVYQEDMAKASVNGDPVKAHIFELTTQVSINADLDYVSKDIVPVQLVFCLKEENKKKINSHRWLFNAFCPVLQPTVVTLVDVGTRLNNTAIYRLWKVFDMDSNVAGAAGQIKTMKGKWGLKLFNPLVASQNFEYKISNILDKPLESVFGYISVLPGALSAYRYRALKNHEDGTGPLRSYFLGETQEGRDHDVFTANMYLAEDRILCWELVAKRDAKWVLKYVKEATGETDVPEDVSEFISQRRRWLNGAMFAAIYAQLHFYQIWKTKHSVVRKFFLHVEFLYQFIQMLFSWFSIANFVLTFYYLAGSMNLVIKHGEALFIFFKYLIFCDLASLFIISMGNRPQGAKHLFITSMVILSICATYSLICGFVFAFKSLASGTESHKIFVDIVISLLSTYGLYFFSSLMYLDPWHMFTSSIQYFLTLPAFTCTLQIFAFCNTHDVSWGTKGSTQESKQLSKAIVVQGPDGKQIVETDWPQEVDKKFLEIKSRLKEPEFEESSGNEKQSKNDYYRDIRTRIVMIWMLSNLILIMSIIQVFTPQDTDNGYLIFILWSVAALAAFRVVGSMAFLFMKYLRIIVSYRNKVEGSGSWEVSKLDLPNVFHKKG

Regarding “13-(4-tert-Butylbenzyl)-9-O-allylberberrubine iodide [Compound No. 13]”, in experiment [1], the “Relative activity Enzyme 2” value was 5 (A compound having the same inhibitory activity as that of polyoxin D at the same concentration was given the value 5). The “Relative activity Enzyme 1” value in [2] is 2 (Compounds having the inhibitory activity at 2-fold, 4-fold, 8-fold and 16-fold higher concentrations than that of polyoxin D were given the values of 4, 3, 2 and 1, respectively). For the same substance, the “MIC (minimum inhibitory concentration)” value in experiment [3] turned out to be 1 µg/mL; in experiment [4], 8 µg/mL; in experiment [5] it was 8 µg/mL; in [6] it was 8 µg/mL; in [7] it was 2 µg/mL; in experiment [8] it was 2 µg/mL. Moreover, the “MIC (minimum inhibitory concentration)” value is 4 µg/mL in experiment [9]; 1 µg/mL in experiment [10]; 2 µg/mL in experiment [11]; 4 µg/mL in [12]; 8 µg/mL in [13]; 1 µg/mL in experiment [14].

Regarding “13-(4-tert-Butylbenzyl)-9-O-crotylberberrubine bromide [Compound No. 14]”, in experiment [1], the “Relative activity Enzyme 2” value is 5 (A compound having the same inhibitory activity as that of polyoxin D at the same concentration was given the value 5). The “Relative activity Enzyme 1” value in experiment [2] is 2 (Compounds having the inhibitory activity at 2-fold, 4-fold, 8-fold and 16-fold higher concentrations than that of polyoxin D were given the values of 4, 3, 2 and 1, respectively). Moreover, the “MIC (minimum inhibitory concentration)” value in experiment [3] worked out at 0.5 µg/mL; in experiment [4], 4 µg/mL; in experiment [5], 4 µg/mL; in [6], 8 µg/mL; in [7], 1 µg/mL; in experiment [8], 1 µg/mL. Also, the “MIC (minimum inhibitory concentration)” value in experiment [9] was 4 µg/mL; in [10] it was 0.5 µg/mL; in [11] it was 1 µg/mL; in [12], 4 µg/mL; in experiment [13] it was 2 µg/mL; in [14] it was 0.5 µg/mL.

As for “13-(4-tert-Butylbenzyl)-9-O-crotylberberrubine chloride [Compound No. 46]”, the “Relative activity Enzyme 2” value in [1] is 6 (compounds having the inhibitory activity at ½, ¼ and ⅛ lower concentrations than that of polyoxin D were given the values of 6, 7 and 8, respectively). Also, the “Relative activity Enzyme 1” value in experiment [2] was 2 (Compounds having the inhibitory activity at 2-fold, 4-fold, 8-fold and 16-fold higher concentrations than that of polyoxin D were given the values of 4, 3, 2 and 1, respectively). For the same substance, the “MIC (minimum inhibitory concentration)” value in experiment [3] turned out to be 0.5 µg/mL; in experiment [4], 4 µg/mL; in [5], 4 µg/mL; in [6], 8 µg/mL; in experiment [7], 1 µg/mL; in experiment [8] it was 1 µg/mL. In addition, the “MIC (minimum inhibitory concentration)” value came out at 4 µg/mL in experiment [9]; 0.5 µg/mL in experiment [10]; 1 µg/mL in [11]; 4 µg/mL in experiment [12]; 2 µg/mL in [13]; 0.5 µg/mL in [14].

As to “13-(4-tert-Butylbenzyl)-9-O-hexylberberrubine chloride [Compound No. 41]”, the “Relative activity Enzyme 2” value in [1] is 6 (compounds having the inhibitory activity at ½, ¼ and ⅛ lower concentrations than that of polyoxin D were given the values of 6, 7 and 8, respectively). In [2], the “Relative activity Enzyme 1” value was 4 (Compounds having the inhibitory activity at 2-fold, 4-fold, 8-fold and 16-fold higher concentrations than that of polyoxin D were given the values of 4, 3, 2 and 1, respectively). Moreover, the “MIC (minimum inhibitory concentration)” value in [3] was determined as 0.25 µg/mL; in experiment [4] it was 8 µg/mL; in [5], 2 µg/mL; in [6] it was 8 µg/mL; in experiment [7] it was 0.5 µg/mL; in [8], 1 µg/mL. Also, the “MIC (minimum inhibitory concentration)” value in [9] came to 2 µg/mL; in [10] it was 0.25 µg/mL; in [11], 0.5 µg/mL; in experiment [12], 4 µg/mL; in [13], 2 µg/mL; in [14], 0.125 µg/mL.

On to “13-(4-tert-Butylbenzyl)-9-O-hexylberberrubine iodide [Compound No. 9]”, for which, in [1], the “Relative activity Enzyme 2” value was 6 (compounds having the inhibitory activity at ½, ¼ and ⅛ lower concentrations than that of polyoxin D were given the values of 6, 7 and 8, respectively). Besides, the “Relative activity Enzyme 1” value in [2] was 3 (Compounds having the inhibitory activity at 2-fold, 4-fold, 8-fold and 16-fold higher concentrations than that of polyoxin D were given the values of 4, 3, 2 and 1, respectively). Moreover, the “MIC (minimum inhibitory concentration)” value came to 0.25 µg/mL in experiment [3]; 8 µg/mL in experiment [4]; 2 µg/mL in experiment [5]; 8 µg/mL in experiment [6]; 1 µg/mL in [7]; 1 µg/mL in experiment [8]. The “MIC (minimum inhibitory concentration)” value was 2 µg/mL in [9]; 0.25 µg/mL in experiment [10]; 1 µg/mL in experiment [11]; 4 µg/mL in experiment [12]; 2 µg/mL in [13]; 0.125 µg/mL in [14].

Consider “13-(4-tert-Butylbenzyl)-9-O-octylberberrubine chloride [Compound No. 42]”, for which the “Relative activity Enzyme 2” value in experiment [1] is 6 (compounds having the inhibitory activity at ½, ¼ and ⅛ lower concentrations than that of polyoxin D were given the values of 6, 7 and 8, respectively). For the same substance, in [2], the “Relative activity Enzyme 1” value was 3 (Compounds having the inhibitory activity at 2-fold, 4-fold, 8-fold and 16-fold higher concentrations than that of polyoxin D were given the values of 4, 3, 2 and 1, respectively). Also, the “MIC (minimum inhibitory concentration)” value was determined as 0.25 µg/mL in experiment [3]; 4 µg/mL in [4]; 1 µg/mL in experiment [5]; 4 µg/mL in [6]; 0.5 µg/mL in experiment [7]; 1 µg/mL in experiment [8]. Moreover, the “MIC (minimum inhibitory concentration)” value in experiment [9] is 1 µg/mL; in [10], 0.25 µg/mL; in experiment [11], 0.5 µg/mL; in [12] it was 2 µg/mL; in experiment [13], 2 µg/mL; in experiment [14], 0.125 µg/mL.

The values are drawn from US7915276B2, “Berberrubine derivatives having antifungal activities” (priority 2006, dated 2011).
